Results: patent US9926319B2, “Pyridyl piperidines” (MERCK PATENT GMBH, priority 2014, dated 2018)
Like-named read-outs stand apart in the source and are kept apart here.

Experiments:
[1] = CLint (intrinsic clearance) assay, microsomal incubation; format: in vitro ADME, Human; conditions: NADPH, 37° C., up to 30 min; for microsomal CLint at 0.8 μM: human, liver microsomes, pH 7.4, human liver microsomes 0.5 mg/mL protein; for Human Clint: human liver microsomes 0.5 mg/mL protein
Outline: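 Test compound at 0.8 μM was incubated at 37 °C with liver microsomes at 0.5 mg/mL protein in 0.1 M potassium phosphate pH 7.4 with 1 mM MgCl2, NADPH-started, with no-cofactor controls. Acetonitrile quench at 0, 5, 10, 20 and 30 min, then LC-MS/MS peak-area decline. CLint (μL/min/mg protein) = k·1000/protein concentration.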

[2] = system: Wnt pathway; assay: Cellular assay for Wnt pathway activity (luciferase reporter cell based assay); conditions: HEK293 luciferase reporter cell line (ER-DSH, TCF dependent promoter), induced with estrogen (1 μM), read-out: 7df3 IC50

| Compound | microsomal CLint at 0.8 μM [1] [µL/min/mg] | IC50 ([2]; 24 h) [nM] | Human Clint [1] [µL/min/mg] | IC50 ([2]; 24 hours) [nM] |
| --- | --- | --- | --- | --- |
| Cn1cc(-c2ccc(-c3cncc(Cl)c3N3CCC4(CC3)C(=O)NN=C4C(F)(F)F)cc2)cn1 [Example 59, 8-{3-Chloro-5-[4-(1-methyl-1H-pyrazol-4-yl)-phenyl]-pyridin-4-yl}-4-trifluoromethyl-2,3,8-triaza-spiro[4.5]dec-3-en-1-one] | 43 | 17 | – | – |
| Cn1ncc2cc(-c3cncc(Cl)c3N3CCC4(CC3)C(=O)NN=C4C(F)(F)F)ccc21 [Example 61, 8-[3-Chloro-5-(1-methyl-1H-indazol-5-yl)-pyridin-4-yl]-4-trifluoromethyl-2,3,8-triaza-spiro[4.5]dec-3-en-1-one] | 38 | 17 | – | – |
| O=C1NCC2(CCN(c3c(Cl)cncc3-c3ccc(-c4cnn([C@H]5CCC[C@@H]5O)c4)cc3)CC2)O1 [Example 62, 8-(3-Chloro-5-{4-[1-((1S,2S)-2-hydroxy-cyclopentyl)-1H-pyrazol-4-yl]-phenyl}-pyridin-4-yl)-1-oxa-3,8-diaza-spiro[4.5]decan-2-one] | 37 | 34 | – | – |
| O=C1NCC2(CCN(c3c(Cl)cncc3-c3ccc(-c4cnn([C@@H]5CCC[C@H]5O)c4)cc3)CC2)O1 [Example 63, 8-(3-Chloro-5-{4-[1-((1R,2R)-2-hydroxy-cyclopentyl)-1H-pyrazol-4-yl]-phenyl}-pyridin-4-yl)-1-oxa-3,8-diaza-spiro[4.5]decan-2-one] | 29 | 30 | – | – |
| CN1C(=O)Cc2cc(-c3cncc(Cl)c3N3CCC4(CC3)CC(=O)NC4=O)ccc21 [Example 65, 8-[3-Chloro-5-(1-methyl-2-oxo-2,3-dihydro-1H-indol-5-yl)-pyridin-4-yl]-2,8-diaza-spiro[4.5]decane-1,3-dione] | < 10 | 21 | – | – |
| Cn1ncc2ccc(-c3cncc(Cl)c3N3CCC4(CC3)CC(=O)NC4=O)cc21 [Example 66, 8-[3-Chloro-5-(1-methyl-1H-indazol-6-yl)-pyridin-4-yl]-2,8-diaza-spiro[4.5]decane-1,3-dione] | < 10 | 15 | – | – |
| Cn1cc(-c2ccc(-c3cncc(Cl)c3N3CCC4(CC3)C(=O)Nc3ccccc34)cc2)cn1 [Example 69] | 89 | 1.1 | – | – |
| Cn1ncc2cc(-c3cncc(Cl)c3N3CCC4(CC3)C(=O)NCC4O)ccc21 (stereo not shown) [Example 70, 8-[3-Chloro-5-(1-methyl-1H-indazol-5-yl)-pyridin-4-yl]-4-hydroxy-2,8-diaza-spiro[4.5]decan-1-one] | – | – | 24 | 20 |
| Cn1cc(-c2ccc(-c3cncc(Cl)c3N3CCC4(CC3)NCCNC4=O)cc2)cn1 [Example 71, 9-{3-Chloro-5-[4-(1-methyl-1H-pyrazol-4-yl)-phenyl]-pyridin-4-yl}-1,4,9-triaza-spiro[5.5]undecan-5-one] | 49 | 12 | – | – |
| O=C1NCCNC12CCN(c1c(Cl)cncc1-c1ccc3oc(=O)[nH]c3c1)CC2 [Example 72, 9-[3-Chloro-5-(2-oxo-2,3-dihydro-benzooxazol-5-yl)-pyridin-4-yl]-1,4,9-triaza-spiro[5.5]undecan-5-one] | < 10 | 35 | – | – |
| CN1C(=O)Cc2ccc(-c3cncc(Cl)c3N3CCC(N)(C(N)=O)CC3)cc21 [Example 73, 4-Amino-5′-chloro-3′-(1-methyl-2-oxo-2,3-dihydro-1H-indol-6-yl)-3,4,5,6-tetrahydro-2H-[1,4′]bipyridinyl-4-carboxylic acid amide] | 17 | 12 | – | – |
| CN1C(=O)Cc2ccc(-c3cncc(Cl)c3N3CCC4(CC3)NCNC4=O)cc21 [Example 74, 8-[3-Chloro-5-(1-methyl-2-oxo-2,3-dihydro-1H-indol-6-yl)-pyridin-4-yl]-1,3,8-triaza-spiro[4.5]decan-4-one] | 20 | 20 | – | – |
| CN1c2ccc(-c3cncc(Cl)c3N3CCC4(CC3)NCNC4=O)cc2CS1(=O)=O [Example 75, 8-[3-Chloro-5-(1-methyl-2,2-dioxo-2,3-dihydro-1H-2l6-benzo[c]isothiazol-5-yl)-pyridin-4-yl]-1,3,8-triaza-spiro[4.5]decan-4-one] | 20 | 4.7 | – | – |
| CC(C)n1cc(-c2ccc(-c3cncc(Cl)c3N3CCC4(CC3)NCNC4=O)cc2)cn1 [Example 78, 8-{3-Chloro-5-[4-(1-isopropyl-1H-pyrazol-4-yl)-phenyl]-pyridin-4-yl}-1,3,8-triaza-spiro[4.5]decan-4-one] | 30 | 3.8 | – | – |
| O=C1CC2(CCN(c3c(Cl)cncc3-c3ccc4c(c3)CS(=O)(=O)N4)CC2)C(=O)N1 [Example 84, 8-[3-Chloro-5-(2,2-dioxo-2,3-dihydro-1H-2l6-benzo[c]isothiazol-5-yl)-pyridin-4-yl]-2,8-diaza-spiro[4.5]decane-1,3-dione] | < 10 | 15 | – | – |
| CN1c2ccc(-c3cncc(Cl)c3N3CCC4(CC3)CC(=O)NC4=O)cc2CS1(=O)=O [Example 87, 8-[3-Chloro-5-(1-methyl-2,2-dioxo-2,3-dihydro-1H-2l6-benzo[c]isothiazol-5-yl)-pyridin-4-yl]-2,8-diaza-spiro[4.5]decane-1,3-dione] | 13 | 0.16 | – | – |
| Cn1cc(-c2ccc(-c3cncc(Cl)c3N3CCC4(CC3)NCNC4=O)cc2)cn1 [Example 88, 8-{3-Chloro-5-[4-(1-methyl-1H-pyrazol-4-yl)-phenyl]-pyridin-4-yl}-1,3,8-triaza-spiro[4.5]decan-4-one] | < 10 | 3.2 | – | – |

Next, values leading:

| microsomal CLint at 0.8 μM [1] [µL/min/mg] | IC50 ([2]; 24 h) [nM] | Human Clint [1] [µL/min/mg] | IC50 ([2]; 24 hours) [nM] | Compound |
| --- | --- | --- | --- | --- |
| 82 | 0.92 | – | – | CCC1=NNC(=O)C12CCN(c1c(Cl)cncc1-c1ccc(-c3cnn(C)c3)cc1)CC2 [Example 54, 8-{3-Chloro-5-[4-(1-methyl-1H-pyrazol-4-yl)-phenyl]-pyridin-4-yl}-4-ethyl-2,3,8-triaza-spiro[4.5]dec-3-en-1-one] |
| 23 | 20 | – | – | O=C1NCC2(CCN(c3c(Cl)cncc3-c3ccc(-c4cnn(C5COC5)c4)cc3)CC2)O1 [Example 55, 8-{3-Chloro-5-[4-(1-oxetan-3-yl-1H-pyrazol-4-yl)-phenyl]-pyridin-4-yl}-1-oxa-3,8-diaza-spiro[4.5]decan-2-one] |
| 23 | 6.1 | – | – | O=C1NCC2(CCN(c3c(Cl)cncc3-c3ccc(-c4cnn(C5CC5)c4)cc3)CC2)O1 [Example 60, 8-{3-Chloro-5-[4-(1-cyclopropyl-1H-pyrazol-4-yl)-phenyl]-pyridin-4-yl}-1-oxa-3,8-diaza-spiro[4.5]decan-2-one] |
| 49 | 19 | – | – | O=C1Cc2ccc(-c3cncc(Cl)c3N3CCC4(CCNC4=O)CC3)cc2N1 [Example 64, 8-[3-Chloro-5-(2-oxo-2,3-dihydro-1H-indol-6-yl)-pyridin-4-yl]-2,8-diaza-spiro[4.5]decan-1-one] |
| 65 | 1.4 | – | – | Cn1cc(-c2ccc(-c3cncc(Cl)c3N3CCC4(CC3)C(=O)Nc3cccnc34)cc2)cn1 [Example 68] |
| – | 9.1 | 36 | – | CN1c2ccc(-c3cncc(F)c3N3CCC4(CCNC4=O)CC3)cc2CS1(=O)=O [Example 76, 8-[3-Fluoro-5-(1-methyl-2,2-dioxo-2,3-dihydro-1H-2l6-benzo[c]isothiazol-5-yl)-pyridin-4-yl]-2,8-diaza-spiro[4.5]decan-1-one] |
| 75 | 0.43 | – | – | COCC1(C(N)=O)CCN(c2c(Cl)cncc2-c2ccc3c(c2)CS(=O)(=O)N3C)CC1 [Example 77, 5′-Chloro-4-methoxymethyl-3′-(1-methyl-2,2-dioxo-2,3-dihydro-1H-2l6-benzo[c]isothiazol-5-yl)-3,4,5,6-tetrahydro-2H-[1,4′]bipyridinyl-4-carboxylic acid amide] |
| – | 43 | 24 | – | Cn1cc(-c2ccc(-c3cncc(F)c3N3CCC4(CC3)CNC(=O)O4)cc2)cn1 [Example 79, 8-{3-Fluoro-5-[4-(1-methyl-1H-pyrazol-4-yl)-phenyl]-pyridin-4-yl}-1-oxa-3,8-diaza-spiro[4.5]decan-2-one] |
| 66 | 0.66 | – | – | C#Cc1cncc(-c2ccc3c(c2)CS(=O)(=O)N3C)c1N1CCC2(CCNC2=O)CC1 [Example 81, 8-[3-Ethynyl-5-(1-methyl-2,2-dioxo-2,3-dihydro-1H-2l6-benzo[c]isothiazol-5-yl)-pyridin-4-yl]-2,8-diaza-spiro[4.5]decan-1-one] |
| 47 | 7.3 | – | – | Cn1ncc2cc(-c3cncc(Cl)c3N3CCC4(CC3)NCNC4=O)ccc21 [Example 82, 8-[3-Chloro-5-(1-methyl-1H-indazol-5-yl)-pyridin-4-yl]-1,3,8-triaza-spiro[4.5]decan-4-one] |
| 37 | 7.1 | – | – | Cn1ncc2cc(-c3cncc(Cl)c3N3CCC(N)(C(N)=O)CC3)ccc21 [Example 83, 4-Amino-5′-chloro-3′-(1-methyl-1H-indazol-5-yl)-3,4,5,6-tetrahydro-2H-[1,4′]bipyridinyl-4-carboxylic acid amide] |
| 51 | 0.7 | – | – | CN1c2ccc(-c3cncc(Cl)c3N3CCC(C#N)(CO)CC3)cc2CS1(=O)=O [Example 85, 5′-Chloro-4-hydroxymethyl-3′-(1-methyl-2,2-dioxo-2,3-dihydro-1H-2l6-benzo[c]isothiazol-5-yl)-3,4,5,6-tetrahydro-2H-[1,4′]bipyridinyl-4-carbonitrile] |
